First: CC(=O)NCc1ccc2c(c1)N(C1CCN(CCCCc3ccc(F)cc3)CC1)CC2
Second: CC(=O)NCc1ccc2ccn(C3CCN(CCc4ccc(Br)cc4)CC3)c2c1
The melting point of the first is lower: 119 to 121 °C for the first, 140 to 141 °C for the second.

First: O=C(O)c1cccc(-c2ccc3c(c2)C(c2ccc(Cl)cc2Cl)CCO3)c1 (configuration not stated)
Second: Cc1c(NC(=O)c2ccc(-c3ccc(Cl)cc3Cl)cc2F)ccc2cc(CN3CCCC3)cnc12
The melting point of the first is higher: 223 to 224 °C for the first, 162 to 163 °C for the second.

First: CSC(C[C@H](NC(=O)[C@H](CC(C)C)NC(=O)OCc1ccccc1)C(C)=O)c1ccccc1 (some centres not stated)
Second: CC(C)(C)OC(=O)Cn1c(C(=O)OCc2ccccc2)cc2ccccc21
The melting point of the first is higher: 119 to 120 °C for the first, 95 to 96 °C for the second.

Compared with `Cc1ccc2c([N+](=O)[O-])c(F)ccc2n1`, `CSc1ncc(-c2ccccc2)c(Cl)n1` is lower in melting point: 105 to 108 °C for the first, 99 °C for the second.

First: Cc1cc(C2=NOC(c3cc(Cl)cc(Cl)c3)(C(F)(F)F)C2)ccc1C(=O)NC1CCCO1 (configuration not stated)
Second: Cc1cn(-c2cc(NC(=O)c3ccc(C)c(Nc4nccc(-c5cccnc5)n4)c3)cc(C(F)(F)F)c2)cn1
The melting point of the first is lower: 144 to 147 °C for the first, 235 to 236 °C for the second.

First: CC(C)OC(=O)Nc1cccc(-c2ccnc3c(C(=O)c4ccoc4)cnn23)c1
Second: Cc1nccn1CCCNC(=O)c1cccc2oc(-c3ccccc3)nc12
The melting point of the first is lower: 127 to 129 °C for the first, 145 to 148 °C for the second.

First: COc1ccnc(CC(C)(C)C(=O)O)c1
Second: COc1cc(C(C)(C)O)cc(Br)c1O
The melting point of the first is higher: 150 to 151 °C for the first, 107 to 112 °C for the second.

First: CCC(C#N)=C1CCN(c2ccc(N3C[C@H](CNC(C)=O)OC3=O)cc2F)CC1
Second: CC(=O)C1CCc2c([nH]c3ccc(Cl)cc23)C1 (configuration not stated)
The melting point of the first is higher: 185 to 186 °C for the first, 159 to 161 °C for the second.

Compared with `CN(c1cc(N2C(=O)C3CC(Cl)CN3C2=O)c(F)cc1Cl)S(=O)(=O)CCl` (configuration not stated), `CCCN(C(C)C)[C@H]1COc2c(F)ccc(C(N)=O)c2C1` is higher in melting point: 119 to 124 °C for the first, 139 to 140 °C for the second.

Going from `NS(=O)(=O)c1ccc(-c2cn(-c3nc(-c4ccc(F)cc4)cc(C(F)(F)F)n3)cn2)s1` to `NS(=O)(=O)c1cccc(-c2cc(-c3nc(-c4ccc(C(F)(F)F)cc4F)cc(C(F)(F)F)n3)ccn2)c1`, the melting point falls from 244 °C to 210 °C.

First: CC(=O)Nc1ccc(S(=O)(=O)Nc2cc(C)on2)cc1
Second: CC(=O)Nc1ccc(OCC(O)CNC2CCc3ccccc3C2)cc1 (configuration not stated)
The melting point of the first is higher: 220 to 222 °C for the first, 133 to 136 °C for the second.

First: Cc1ccccc1Oc1cccc2c1OC(=O)C2N1C(=O)c2ccccc2C1=O (configuration not stated)
Second: O=C1C(c2ccccc2)=C(c2ccccc2)C(=O)N1c1cccc(Cl)c1
The melting point of the first is higher: 168 to 170 °C for the first, 144 to 145 °C for the second.

Compared with `COc1ccc(-c2cc3cc(F)c(F)cc3[nH]2)cc1NS(=O)(=O)c1cccs1`, `COc1cccc2c1sn1c3ccccc3c(=O)cc21` is higher in melting point: 211 to 213 °C for the first, 245 to 251 °C for the second.

First: CC(C)(C)C(=O)Nc1nc(O)c2cc(C#C[Si](C)(C)C)cnc2n1
Second: CNC(COc1ccc(C2C(=O)Oc3c2cc(C(C)(C)C)cc3C(C)(C)C)cc1)C(=O)O (configuration not stated)
The melting point of the first is higher: > 250 °C for the first, 115 to 121 °C for the second.

Compared with `NC(=O)N(O)CC=Cc1ccccc1Sc1ccc(Cl)cc1`, `NC(=O)c1c(Cl)c(-c2ccccc2)n2c1CN(C(=O)Cc1cccs1)CC2` is higher in melting point: 126 to 128 °C for the first, 225 to 229 °C for the second.

Compared with `CC1COCc2nc3c(N)nc4ccc(O)cc4c3n21` (configuration not stated), `Nc1c2c(nc3cnccc13)CCCC2=O` is lower in melting point: 262 to 264 °C for the first, 237 to 242 °C for the second.

First: CC1c2ccccc2CC(C)(O)Cc2ccccc21 (configuration not stated)
Second: O[C@H]1COC(c2ccccc2)=N[C@@H]1c1ccccc1 (racemic)
The melting point of the first is lower: 100 to 135 °C for the first, 150 °C for the second.

First: CN1C(=O)CCC1(O)c1cccc(C(F)(F)F)c1 (configuration not stated)
Second: CN1CCC(Oc2ccc(C#N)cc2C(F)(F)F)CC1
The melting point of the first is higher: 137 to 139 °C for the first, 66 to 69 °C for the second.

`CN(CCCN)CCCNc1ccc2ncn3c4ccccc4c(=O)c1c23` and `CCCN(CCC)C1COc2cccc(C(=O)c3ccccc3F)c2C1` (configuration not stated) cannot be ordered by melting point: 97 to 99 °C for the first, 98.3 to 98.4 °C for the second.

First: CCCN(CCCNc1c(Cl)cn[nH]c1=O)CCOc1cccc2c1OCCO2
Second: Fc1cc(OC2CCOCC2)c2c(Nc3c(Cl)ccc4c3OCO4)ncnc2c1
The melting point of the first is lower: 87 to 89 °C for the first, 209 to 212 °C for the second.

First: Brc1ncnn1C(c1ccccc1)(c1ccccc1)c1ccccc1
Second: O=C(Nc1ccc(Br)cn1)C1=C(O)c2ccccc2N(c2ccccc2)C1
The melting point of the first is higher: 239 to 241 °C for the first, 153 to 154 °C for the second.

First: CCCCN1CC(=O)N2[C@@H](c3ccc(N)cc3)c3[nH]c4ccccc4c3C[C@@H]2C1=O (relative stereo)
Second: CCc1c(-c2ccc(OCc3ccccc3)cc2)cn2cccc(CO)c12
The melting point of the first is higher: 192 °C for the first, 144 to 145 °C for the second.

Compared with `COC(=O)C(Cc1ccc(OCc2ccccc2)cc1)NC(=O)c1cc2ccc(-c3ccc(Cl)cc3)cc2[nH]1` (configuration not stated), `COc1ccc(-c2ccc(C(=O)Nc3ccc4cc(CN5CCCC5)cnc4c3)cc2)cc1` is higher in melting point: 196 to 198 °C for the first, 202 to 204 °C for the second.

`FC(F)(F)c1ccc(CN2CC3(COc4cc5c(cc43)CCO5)c3c(-c4cncnc4)cccc32)o1` (configuration not stated) and `FC(F)(F)c1n[nH]c2c1nc(-c1ccccc1)c1ccccc12` cannot be ordered by melting point: 263 to 266 °C for the first, 264 to 265 °C for the second.

First: CCOc1cc(-n2nc(C(=O)O)cc2-c2ccc(-c3ccco3)cc2)ccc1S(C)(=O)=O
Second: CCN(Cc1ccccc1)C(=O)Cc1c(-c2ccc(Cl)c(Cl)c2)nc2cc(C)ccn12
The melting point of the first is higher: 256 to 257 °C for the first, 180 to 182 °C for the second.

Compared with `CC(C)(C)c1cc(-c2ccc(F)cc2)cc(C(C)(C)C)c1O`, `CCOC(=O)c1ccc(Br)cc1-c1ccc(OC)c(OC)c1` is lower in melting point: 97 to 99 °C for the first, 53 °C for the second.

First: CCCCCCCCCCCCc1cc(NC(=O)Nc2c(C(C)C)cccc2C(C)C)no1
Second: Cc1cc(CCCCCCCOc2ccc(C(=O)OC(C)(C)C)cc2)on1
The melting point of the first is higher: 101 to 107 °C for the first, 76 °C for the second.

First: Cc1cc(O)ccc1S(C)(=O)=O
Second: Cc1cccc(C)c1NC(=O)NCCCNC(C)C
The melting point of the first is lower: 105 °C for the first, 152 to 154 °C for the second.

First: CC1(C)NC(=O)CN1C(=O)CNC(=O)CN1CCCC1=O
Second: CC1(C)CC(=O)C(C(=O)NS(=O)(=O)c2ccccc2)C(=O)C1
The melting point of the first is higher: 229 to 231 °C for the first, 101 to 103 °C for the second.

First: CCn1cc(C2(c3cccc(-c4cccnc4F)c3)N=C(N)N(C)C2=O)cc1COC (configuration not stated)
Second: CCN1c2ncc(COc3ccncc3)cc2C(=O)N(C)c2ccc(Cl)nc21
The melting point of the first is lower: 154 to 157 °C for the first, 169 to 170 °C for the second.

Compared with `CCCCC1OC(=O)c2cc(NC3CCCC3)ccc21` (configuration not stated), `COC1Nc2c(O)cccc2C(=O)N2CCCC12` (configuration not stated) is higher in melting point: 79 to 81 °C for the first, 150 to 153 °C for the second.

Compared with `Brc1ccc(-c2nnnn2Cc2ccccc2)s1`, `O=C1Oc2ccccc2C1(Cc1ccccc1)Cn1cncn1` (configuration not stated) is lower in melting point: 196 to 197 °C for the first, 150 °C for the second.

First: CS(=O)(=O)NC1=CC(NC(=O)CCl)([N+](=O)[O-])CC=C1OC1CCCCC1 (configuration not stated)
Second: Cc1nccn1C(=O)NC1CCCCC1
The melting point of the first is higher: 208 to 210 °C for the first, 100 to 102 °C for the second.

First: O=C(c1ccc(Cl)cc1)[C@H]1C[C@H]1C(=O)O (relative stereo)
Second: CCCCCCCCCc1ccc(C(=O)[C@@H]2CCCC[C@H]2C(=O)O)cc1 (relative stereo)
The melting point of the first is higher: 150 to 153 °C for the first, 84 to 86 °C for the second.

Compared with `CCCCCCCCCCCCC(=O)CC#CCCCC(=O)O`, `CCCCCCCCCCCCCCCCC[C@@H]1OC[C@@H](COC(=O)CCCCCOS(=O)(=O)c2ccc(C)cc2)O1` (relative stereo) is lower in melting point: 79 to 80.5 °C for the first, 41.9 to 42.7 °C for the second.

First: Cc1ccc(CC(C)NCC(O)c2cc3ccccc3o2)cc1 (configuration not stated)
Second: CC(C)c1nc2cc(COc3ccc(CC4SC(=O)NC4=O)cc3)ccc2o1 (configuration not stated)
The melting point of the first is lower: 88 to 100 °C for the first, 128 to 131 °C for the second.

First: CCCCC(CC)COc1cccc2c1C(=O)c1cccc(OCC(CC)CCCC)c1C2=O (configuration not stated)
Second: CCOc1cc(OCC(=O)O)cc2c1C(=O)N(COC(=O)c1c(Cl)cccc1Cl)S2(=O)=O
The melting point of the first is lower: 105 °C for the first, 179 to 180 °C for the second.

First: Cc1cc(C#N)cn2cc(-c3cccc(-c4ccc(C#N)cc4)c3)nc12
Second: Cc1cc(C)c2cccc(OCc3c(Cl)ccc(S(=O)(=O)N4CCC[C@H]4C(=O)NCCCNC(=O)c4cccc(C#N)c4)c3Cl)c2n1
The melting point of the first is higher: 236 to 238 °C for the first, 102 to 106 °C for the second.

First: O=C(O)CCSC1c2ccccc2COc2ccc(OCc3ccc4ccc(OC(F)F)cc4n3)cc21 (configuration not stated)
Second: O=[PH](c1ccc2ccccc2c1)c1ccc2ccccc2c1
The melting point of the first is higher: 180 to 184 °C for the first, 98.3 °C for the second.

Compared with `COc1cc2c(c(OC)c1OC)-c1cc(I)c(O)cc1[C@@H](NC(C)=O)CC2`, `COc1ccc(-c2nc(CN(c3ccccc3)c3ccccc3)nc3cc(OC)c(OC)cc23)cc1OC` is higher in melting point: 210 °C for the first, 215 to 216 °C for the second.

First: O=C(Oc1ccccc1)c1ncn2c1CN(C(=O)N1CCCC1)c1ccccc1-2
Second: N=C(NCC1(c2ccccc2)CC1)NN=Cc1c(Cl)cccc1Cl
The melting point of the first is higher: 196 to 199 °C for the first, 136 to 138 °C for the second.

Compared with `CCOC(=O)C(C)=NNc1ccc2[nH]c(=O)[nH]c2c1`, `CONC(=O)CC1=C(C)/C(=C/c2ccc(S(C)=O)cc2)c2ccc(F)cc21` (configuration not stated) is lower in melting point: 220 °C for the first, 177 to 179 °C for the second.

Compared with `C=C(F)C[C@@H](C(=O)O)N(Cc1cccnc1)S(=O)(=O)c1ccc(OC)cc1`, `CC1CC(=O)NN=C1c1ccc(-n2ccc(CN(C)C)c2)cc1` (configuration not stated) is lower in melting point: 172 °C for the first, 167 to 168 °C for the second.

Compared with `O=C1c2cccc3c(N4CCCC4)c(Br)cc(c23)C(=O)N1O`, `O=C(NCCN1CCOCC1)NCc1ccc2c(c1)Cc1c(-c3ccsc3)n[nH]c1-2` is lower in melting point: 170 to 172 °C for the first, 168 to 170 °C for the second.

First: C=C(CCCCC)C(=O)c1ccc(OCC(=O)O)c(Cl)c1Cl
Second: CCn1c(=O)c2c(ncn2CCCCC2CO2)n(CC)c1=O (configuration not stated)
The melting point of the first is higher: 103 to 106 °C for the first, 58 to 59 °C for the second.

First: C=CCNC(=O)c1ccc(N)cc1Br
Second: FC(F)(F)CNC(=S)NCc1ccc(C(F)(F)F)cc1
The melting point of the first is higher: 115 to 117 °C for the first, 80 to 82 °C for the second.

First: COc1cc2c(cc1CNC1CCCNC1c1ccccc1)N(C)C(=O)CC2(C)C (configuration not stated)
Second: OCC1OC(n2cnc3c(NC4CCc5ccccc54)ncnc32)C(O)C1O (configuration not stated)
The melting point of the first is higher: > 280 °C for the first, 120 to 122 °C for the second.

First: CC(=O)OC1CC2=CCC3C4CCC(C(C)CI)C4(C)CCC3C2(C)C(OC(C)=O)C1 (configuration not stated)
Second: Cc1ccc(OC(=O)CCCC(=O)OOC(C)(C)C)cc1
The melting point of the first is higher: 135 to 136 °C for the first, 50 to 55 °C for the second.

`CN(C)CCN(C)c1ccc2nnc(-c3cnc([N+](=O)[O-])n3C)n2n1` showed a melting point of 196 to 198 °C.

Reference: a melting point compilation (Tetko et al.; mined from patent text by program, amines drawn as free bases though some values may be those of a salt)
